In article PMC10600239, “Selective MCL-1 inhibitor ABBV-467 is efficacious in tumor models but is associated with cardiac troponin increases in patients” (Communications Medicine, 2023):

Tested on: AMO-1 xenografts
Experiment: AMO-1 xenograft efficacy (tumor volume, body weight)
Type: in vivo, mouse
Conditions: mice, 25 mg/kg on a Q7D × 2 schedule
Description: All animal studies were conducted in accordance with the guidelines approved by the Institutional Animal Care and Use Committees of AbbVie. The research protocol was approved by In Vivo Pharmacology at AbbVie prior to study initiation but was not publicly registered or disclosed. Female C.B-17 SCID-beige mice (AMO-1, OPM-2, NCI-H929, and OCI-AML2 xenografts) and female NSG mice (MV4-11-Red.Fluc systemic) were purchased from Charles River Laboratories (Wilmington, MA). Animals were housed in a light cycle-controlled room with HEPA filtration at 22 °C. Animals had nesting and climbing cage topper as the primary environmental enrichment. Animals were inoculated subcutaneously in the right flank with 5 × 10^6 (AMO-1, OPM-2, NCI-H929, and OCI-AML2) or intravenous (IV) with 5 × 10^6 (MV4-11-Red.Fluc). The inoculation volume (0.2 mL) comprised a 50:50 mixture of cells in growth media and Matrigel (BD Biosciences) for subcutaneous injections and 100% phosphate-buffered saline for IV administration. All cell lines used in this publication were authenticated using IDEXX for STR profiling as well as their IMPACT and human IMPACT panels for pathogen screening. Electronic calipers were used to measure the length and width of each tumor 2 to 3 times per week. Tumor volume was estimated by applying the following equation: volume = length × width^2/2. All groups remained blinded during measurements and dosing; only veterinary staff were aware of group identity. When tumors reached approximately 200 mm^3, mice were randomized by match and distributed into treatment and control groups. All xenograft trials were conducted using 5 to 10 mice per group, and all mice were ear tagged and monitored individually throughout the studies. […] Tumor burden in the systemic MV4-11-Red.Fluc experiment was measured using an IVIS® spectrum from PerkinElmer by taking the total photon flux of the entire dorsal side of an individual mouse. […] A background control mouse that was tumor naive but received D-Luciferin was placed in the upper left corner of each image. The total flux from this animal was subtracted from the total flux of each animal present in the image.
For in vivo studies, maximal tumor growth inhibition (TGI) was calculated as the greatest treatment response using the following equation: Maximal TGI = (1 − mean tumor volume of the treated group/mean tumor volume of the vehicle control group) × 100. The tumor growth delay (TGD) percentage was determined as the percentage increase of the median time period for the treatment group to reach an arbitrary tumor volume of 1000 mm^3 relative to the vehicle control group. […] A power analysis was conducted using historical data to determine the number of animals required to yield significance of 0.05 at a 30% difference. […] Data from experiments in vivo were analyzed using the student’s t-test for TGI values and the Mann–Whitney U test for TGD using Excel and GraphPad Prism. Fisher’s exact test was used to probe significance of differences in response frequency.

With Cc1c(Cl)c2c(Cl)c(C)c1-c1c(-c3ccc(F)cc3)sc3ncnc(c13)O[C@@H](C(=O)O)Cc1cc(ccc1OCc1ccnc(-c3ccc(OC[C@H]4COCCO4)cc3)n1)OC[C@@H](CN1CCN(C)CC1)O2 [ABBV-467] as the compound, how does the tolerability read?
The tolerability was “not well-tolerated”.
